Source: patent publication US20230173076A1, “METABOLICALLY STABLE PEPTIDE ANALOGS” (UNIVERSITÉ DE STRASBOURG, priority 2016, published 2023)
Positions of bridges follow the written chain, without caps; N, C: chain ends. Non-standard residues stand in square brackets, D forms with d. Residues, ends and D or L forms follow the SMILES beside them. ξ: configuration not given here. *: point of attachment. X1 = CCN([C@@H](C)C(=O)C[C@@H](CCCCNC(=O)CCC(F)(F)C(F)(F)C(F)(F)C(F)(F)C(F)(F)C(F)(F)C(F)(F)C(F)(F)F)C(=O)NCC(N)=O)*; Ile(3ξ) = CCC(C)[C@H](N)C(=O)O

Columns and labels:
in vitro = conditions: human, plasma, Human plasma stability (t1/2)
Procedure: (§1) This procedure is designed to determine the stability of a test compound in blood or plasma from human or animal species in a 96-well plate format. The test compound is quantified at 5 time points by HPLC-MS/MS analysis.
(§2) Test concentration: 1 μM with a final DMSO concentration of 0.5%.
(§3) Experimental protocol : Blood or plasma are pre-warmed at 37° C. water bath for 5 min, followed by addition of the test compound. The incubation is performed in a 37° C. water bath for 2 h. An aliquot of the incubation mixture is transferred to acetonitrile at 0, 0.5, 1, 1.5 and 2 h, respectively. Samples are then mixed and centrifuged. Supernatants are used for HPLC-MS/MS analysis. Reference compounds Propoxycaine and propantheline are tested simultaneously with the test compound in each assay. Analytical methods Samples are analyzed by HPLC-MS/MS using selected reaction monitoring. The HPLC system consists of a binary LC pump with autosampler, a C-18 column, and a gradient. Conditions may be adjusted as necessary. Data analysis Peak areas corresponding to the test compound are recorded. The compound remaining (%) is calculated by comparing the peak area at each time point to time zero. The half-life is calculated from the slope of the initial linear range of the logarithmic curve of compound remaining (%) vs. time, assuming first order kinetics
(§4) Test concentration: 1 μM with a final DMSO concentration of 0.5%. Experimental protocol: Blood or plasma are pre-warmed at 37° C. water bath for 5 min, followed by addition of the test compound. The incubation is performed in a 37° C. water bath for 2 h. An aliquot of the incubation mixture is transferred to acetonitrile at 0, 0.5, 1, 1.5 and 2 h, respectively. Samples are then mixed and centrifuged. Supernatants are used for HPLC-MS/MS analysis. Reference compounds Propoxycaine and propantheline are tested simultaneously with the test compound in each assay. Analytical methods Samples are analyzed by HPLC-MS/MS using selected reaction monitoring. The HPLC system consists of a binary LC pump with autosampler, a C-18 column, and a gradient. Conditions may be adjusted as necessary. Data analysis Peak areas corresponding to the test compound are recorded. The compound remaining (%) is calculated by comparing the peak area at each time point to time zero. The half-life is calculated from the slope of the initial linear range of the logarithmic curve of compound remaining (%) vs. time, assuming first order kinetics
(§5) Test concentration: 1 μM with a final DMSO concentration of 0.5%. Experimental protocol: Blood or plasma are pre-warmed at 37° C. water bath for 5 min, followed by addition of the test compound. The incubation is performed in a 37° C. water bath for 2 h. An aliquot of the incubation mixture is transferred to acetonitrile at 0, 0.5, 1, 1.5 and 2 h, respectively. Samples are then mixed and centrifuged. Supernatants are used for HPLC-MS/MS analysis. Reference compounds Propoxycaine and propantheline are tested simultaneously with the test compound in each assay. Analytical methods Samples are analyzed by HPLC-MS/MS using selected reaction monitoring. The HPLC system consists of a binary LC pump with autosampler, a C-18 column, and a gradient. Conditions may be adjusted as necessary. Data analysis Peak areas corresponding to the test compound are recorded. The compound remaining (%) is calculated by comparing the peak area at each time point to time zero. The half-life is calculated from the slope of the initial linear range of the logarithmic curve of compound remaining (%) vs. time, assuming first order kinetics.

[1] = target: T1, human vasopressin Oxytocin receptor (Homo sapiens, UniProt P30559); test: Radioligand binding assay, human oxytocin receptor in transfected Chem-1 cells; conditions: read-out: Affinity % of inhibition à 10 nM
T1 construct: expressed in transfected cells; host or cells: Chem-1 cells (membrane homogenates)
T1 sequence (P30559 1-389): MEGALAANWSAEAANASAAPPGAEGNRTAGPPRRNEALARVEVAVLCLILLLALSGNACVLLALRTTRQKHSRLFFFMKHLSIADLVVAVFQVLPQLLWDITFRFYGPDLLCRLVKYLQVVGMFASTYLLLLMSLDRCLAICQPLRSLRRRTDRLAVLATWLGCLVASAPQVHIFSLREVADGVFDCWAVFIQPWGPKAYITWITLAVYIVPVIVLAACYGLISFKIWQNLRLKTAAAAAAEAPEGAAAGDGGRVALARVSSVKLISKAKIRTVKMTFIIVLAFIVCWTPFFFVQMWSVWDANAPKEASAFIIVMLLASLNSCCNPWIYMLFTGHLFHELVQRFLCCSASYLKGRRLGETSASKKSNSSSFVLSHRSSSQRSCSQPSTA
Procedure: Experimental protocol: […] Following incubation, the samples are filtered rapidly under vacuum through glass fiber filters (GF/B, Packard) presoaked with 0.3% PEI and rinsed several times with ice-cold 50 mM Tris-HCl and 0.1% BSA using a 96-sample cell harvester (Unifilter, Packard). The filters are dried then counted for radioactivity in a scintillation counter (Topcount, Packard) using a scintillation cocktail (Microscint 0, Packard). The results are expressed as a percent inhibition of the control radioligand specific binding.

[2] = Human plasma stability (HPLC-MS/MS); conditions: 37° C.; for Human plasma stability (t1/2): 1 μM; for half-life at 1 μM: human, plasma, Human plasma stability (t1/2)
Procedure: as §1, §2, §3, §4, §5

[3] = Solubility study in water by visual observation
Procedure: (§6) The resulting solution was vortexed 1 min following by 1 min in bath sonication. Solubility was then assessed by visual observation of the resulting dispersion (Clear/Cloudy and presence of particulates).

Procedure for physchem: as §6

solubility at 2 min [3] [µM]	Compound	solubility at 2 min (physchem) [µM]	inhibition at 0.01 µM [1] [%]	half-life at 1 μM ([2]; apelin analogs table) [h]	other results
	CC[C@H](C)[C@@H]1NC(=O)[C@H](Cc2ccc(O)cc2)NC(=O)[C@@H](N)CSSC[C@@H](C(=O)N2CCC[C@H]2C(=O)N[C@@H](CC(C)C)C(=O)NCC(N)=O)NC(=O)[C@H](CC(N)=O)NC(=O)[C@H](CCC(N)=O)NC1=O [Oxytocin, reference compound]	> 100	102		half-life at 1 μM (in vitro): 2.45 h
	CSCC[C@H](NC(=O)[C@@H]1CCCN1C(=O)CNC(=O)[C@H](CCCCN)NC(=O)[C@H](Cc1c[nH]cn1)NC(=O)[C@H](CO)NC(=O)[C@H](CC(C)C)NC(=O)[C@H](CCCNC(=N)N)NC(=O)[C@@H]1CCCN1C(=O)[C@H](CCCNC(=N)N)NC(=O)[C@H](CCC(N)=O)NC(=O)CCC(F)(F)C(F)(F)C(F)(F)C(F)(F)C(F)(F)C(F)(F)C(F)(F)C(F)(F)F)C(=O)N1CCC[C@H]1C(=O)N[C@@H](Cc1ccccc1)C(=O)O [LE-122]	> 100		> 20.7	Human plasma stability (t1/2) ([2]; apelin analogs table): 20.68 h
> 100	CC[C@H](C)[C@H](NC(=O)[C@H](Cc1ccc(O)cc1)NC(=O)[C@@H](NC(=O)[C@H](CCCNC(=N)N)NC(=O)[C@H](CC(=O)O)NC(=O)CCC(F)(F)C(F)(F)C(F)(F)C(F)(F)C(F)(F)C(F)(F)C(F)(F)C(F)(F)F)C(C)C)C(=O)N[C@@H](Cc1cnc[nH]1)C(=O)N1CCC[C@H]1C(=O)N[C@@H](Cc1ccccc1)C(=O)O [LE120]				Human plasma stability (t1/2) ([2]; angiotensin II analogs table): >24 h; half-life at 1 μM ([2]; angiotensin II analogs table): > 24 h
> 100	CC[C@H](C)[C@H](NC(=O)[C@H](Cc1ccc(O)cc1)NC(=O)[C@@H](NC(=O)[C@H](CCCNC(=N)N)NC(=O)[C@@H](N)CC(=O)O)C(C)C)C(=O)N[C@@H](Cc1cnc[nH]1)C(=O)N1CCC[C@H]1C(=O)N[C@@H](Cc1ccccc1)C(=O)O [Angiotensin II, reference compound]				
	CSCC[C@H](NC(=O)[C@@H]1CCCN1C(=O)CNC(=O)[C@H](CCCCN)NC(=O)[C@H](Cc1c[nH]cn1)NC(=O)[C@H](CO)NC(=O)[C@H](CC(C)C)NC(=O)[C@H](CCCNC(=N)N)NC(=O)[C@@H]1CCCN1C(=O)[C@H](CCCNC(=N)N)NC(=O)[C@H](CCC(N)=O)NC(=O)[C@@H](N)CCCCNC(=O)CCC(F)(F)C(F)(F)C(F)(F)C(F)(F)C(F)(F)C(F)(F)C(F)(F)C(F)(F)F)C(=O)N1CCC[C@H]1C(=O)N[C@@H](Cc1ccccc1)C(=O)O [LE-124]			5.95	
	CCC(C)[C@@H]1NC(=O)[C@H](Cc2ccc(O)cc2)NC(=O)[C@@H](N)CSSC[C@@H](C(=O)N(CC)[C@@H](C)C(=O)C[C@@H](CCCCNC(=O)CCC(F)(F)C(F)(F)C(F)(F)C(F)(F)C(F)(F)C(F)(F)C(F)(F)C(F)(F)F)C(=O)NCC(N)=O)NC(=O)[C@H](CC(N)=O)NC(=O)[C@H](CCC(N)=O)NC1=O (some centres unmarked) [SR-11-74] (H-CY[Ile(3ξ)]QNC-X1; disulfide 1-6)	> 100	91.3		half-life at 1 μM ([2]; oxytocin analogs table): 3.98 h
